Data from patent publication EP4674425A1, “COMPOSITION FOR TREATING DIABETIC RETINOPATHY, COMPRISING PEPTIDE” (EyebioKorea, Inc., priority 2023, dated 2026).
Non-standard residues stand in square brackets, D forms with d. No end group written: not given here. Hyp = O=C(O)[C@@H]1C[C@@H](O)CN1; Aib = CC(C)(N)C(=O)O

Key:
pericytes = assay: Loss of pericytes in retinal blood vessels of db/db mice (elastase digest, PAS staining); type: in vivo; conditions: Figures 5 and 6
Source text: In the early stage of nonproliferative diabetic retinopathy, blood flows into the tissue due to the loss of pericytes surrounding the capillaries, causing the macula to swell. Macular edema is a representative symptom of nonproliferative diabetic retinopathy in which the focus of objects becomes blurred, the field of vision darkens, and visual acuity temporarily decreases. Therefore, in order to evaluate the efficacy of the peptide of the present invention in inhibiting loss of pericytes, an experiment was performed as follows.
The drug was administered as eye drops (ED) to 12-week-old db/db mice twice a day (BID) or three times a day (TID) for about 12 weeks. In order to evaluate the state of blood vessels in the retina, the eyes of the extracted mice were fixed in 10% formalin for a week. Thereafter, the fixed eye tissue was treated with elastase to separate the retinal blood vessels and PAS staining was performed. The ratio of vascular endothelial cells and pericytes present in the blood vessel walls and the number of acellular blood vessels were quantified to evaluate the permeability of the blood vessels in the retina.

NF-kB [1] = assay: Gene expression by microarray in zebrafish diabetic retinopathy model; type: in vivo, zebrafish Tg[flk:EGFP]; conditions: eyeball RNA, 4 days treatment with glucose and peptide, Figure 14
Procedure: (§1) Among the embryos obtained by mating adult zebrafish Tg[flk:EGFP], embryos expressing a fluorescent protein were selected and used. On the 6th day after fertilization, the embryos were treated with glucose and the peptide of the present invention (002-175) for 4 days, and then euthanized by adding 4 mg/ml of Tricane. The eyeballs were extracted, and RNA was extracted and analyzed using microarray. In addition, Trizol was added to the extracted eyeballs, and the tissue was homogenized to extract mRNA. The extracted mRNA was quantified using a NanoDrop spectrophotometer, and cDNA was synthesized using RNA with a purity of 1.8 or higher. The synthesized cDNA was subjected to polymerization reaction of SYBR Green Master Mix, primers, and genes, and the concentration of each gene was divided by GAPDH to obtain the corrected concentration of the gene.

IL-1β [2] = assay: as above; type: in vivo, zebrafish Tg[flk:EGFP]; conditions: eyeball RNA, 4 days treatment with glucose and peptide, Figure 14
Procedure: as §1

MMP9 [3] = assay: as above; type: in vivo, zebrafish Tg[flk:EGFP]; conditions: eyeball RNA, 4 days treatment with glucose and peptide, Figure 14
Procedure: as §1

GFAP = assay: Immunofluorescence (IF) staining of zebrafish eye, diabetic retinopathy model; type: in vivo; conditions: outer nuclear layer (ONL) of the retina; versus high glucose group; Figures 16 and 17
Procedure: (§2) On the 6th day after fertilization (6dpf, 6 days post-fertilization), zebrafish fry were fixed with 4% paraformaldehyde for 3-4 hours, and then treated with 30% sucrose, and treated overnight at 4°C. O.C.T blocks were made, and sections were performed, and then TUNEL staining and immunofluorescence (IF) staining were performed.

ZO-1 = assay: as above; type: in vivo; conditions: tight junction protein; versus high glucose group; Figures 16 and 17
Procedure: as §2

VEGF = assay: as above; type: in vivo; conditions: outer nuclear layer (ONL) of the retina; versus high glucose group; Figures 16 and 17
Procedure: as §2

NF-kB [4] = assay: Gene expression by real-time PCR in zebrafish diabetic retinopathy model; type: in vivo, zebrafish Tg[flk:EGFP]; conditions: corrected by GAPDH, eyeball mRNA, Figure 15
Procedure: as §1

ikkγ = assay: as above; type: in vivo, zebrafish Tg[flk:EGFP]; conditions: corrected by GAPDH, eyeball mRNA, Figure 15
Procedure: as §1

IL-1β [5] = assay: as above; type: in vivo, zebrafish Tg[flk:EGFP]; conditions: corrected by GAPDH, eyeball mRNA, Figure 15
Procedure: as §1

ikkα = assay: as above; type: in vivo, zebrafish Tg[flk:EGFP]; conditions: corrected by GAPDH, eyeball mRNA, Figure 15
Procedure: as §1

ikkβ = assay: as above; type: in vivo, zebrafish Tg[flk:EGFP]; conditions: corrected by GAPDH, eyeball mRNA, Figure 15
Procedure: as §1

MMP9 [6] = assay: as above; type: in vivo, zebrafish Tg[flk:EGFP]; conditions: corrected by GAPDH, eyeball mRNA, Figure 15
Procedure: as §1

[7] = tested on: TUNEL positive cells in the inner nuclear layer (INL) of the retina; assay: TUNEL assay in retinal tissue, zebrafish diabetic retinopathy model; type: in vivo; conditions: versus high glucose group, Figures 16 and 17
Procedure: as §2

[8] = tested on: zebrafish retinal blood vessels; assay: Inhibition of retinal vasodilation in zebrafish diabetic retinopathy model (fluorescence microscopy); type: in vivo, zebrafish Tg[flk:EGFP]; conditions: Figures 12 and 13
Procedure: Among the embryos obtained by mating adult zebrafish Tg[flk:EGFP], embryos expressing a fluorescent protein were selected and used. On the 6th day after fertilization, the embryos were treated with glucose and the peptide of the present invention (002-175) for 4 days, and then euthanized by adding 4 mg/ml of Tricane. After fixing with 4% paraformaldehyde for 3 days, the eyeballs were separated using 3% trypsin, and the changes in the blood vessels in the separated eyeballs were observed using a fluorescence microscope.

Akt [9] = assay: Western blot of retinal tissue, STZ induced diabetic retinopathy mouse model; type: in vivo, C57BL/6 mice; conditions: about 17 weeks of administration, versus STZ model group, Figure 7
Procedure: (§3) After fasting for 3-4 hours before administration, 8-week-old C57BL/6 mice were administered with streptozotocin (STZ) dissolved in Na-citrate buffer and buffer at a dose of 50 mg/kg intraperitoneally for 5 days. The drug used at this time was prepared immediately before administration and used quickly. One week after the last STZ intraperitoneal administration, blood glucose was measured, and only mice with blood glucose exceeding 250 mg/dL were determined to be diabetic mice and used in the experiment. The drug was administered as eye drops (ED) twice a day for about 17 weeks starting from the day after model production, and 10 µg was administered intraocularly (intravitreal injection, IVT) once a month. In order to evaluate the expression level of proteins in the retina, retinal tissue was separated from the extracted mouse eyes and treated with RIPA solution to extract proteins in the retina. Western blot was performed to evaluate the expression level of factors related to neovascularization and vascular permeability in the retina.

[10] = tested on: vascular endothelial growth factor (VEGF); assay: as above; type: in vivo, C57BL/6 mice; conditions: about 17 weeks of administration, versus STZ model group, Figure 7
Procedure: as §3

[11] = tested on: Streptozotocin (STZ) induced diabetic retinopathy mouse model; assay: Electroretinography in streptozotocin induced diabetic retinopathy mouse model; type: in vivo, C57BL/6 mice; conditions: electroretinogram (ERG); eye drops (ED) twice a day for about 17 weeks; versus STZ model group; comparator aflibercept; Figure 3
Procedure: The streptozotocin induced mouse model is a type 1 diabetes mellitus model that induces diabetes mellitus by injecting the antibiotic streptozotocin (STZ) into the mouse's peritoneum to damage the beta cells that produce insulin in the pancreas. It is one of the models used in diabetic retinopathy research, and it is a model that can confirm the early stage of diabetic retinopathy from the time of onset of diabetes mellitus.
After fasting for 3-4 hours before administration, 8-week-old C57BL/6 mice were administered with streptozotocin (STZ) dissolved in Na-citrate buffer and buffer at a dose of 50 mg/kg intraperitoneally for 5 days. The drug used at this time was prepared immediately before administration and used quickly. One week after the last STZ intraperitoneal administration, blood glucose was measured, and only mice with blood glucose exceeding 250 mg/dL were determined to be diabetic mice and used in the experiment. The drug was administered as eye drops (ED) twice a day for about 17 weeks starting from the day after model production, and 10 µg was administered intraocularly (intravitreal injection, IVT) once a month. […] The retina was stimulated with a single white light to obtain a response value, and the amplitude from the trough of the a wave to the peak of the b wave was measured, which was evaluated as an index of retinal function.

Akt [12] = assay: Western blot of retinal tissue, db/db mouse model; type: in vivo, db/db mice; conditions: eye drops three times a day (TID) for about 12 weeks, versus db/db mouse group, Figure 9
Procedure: (§4) The drug was administered as eye drops (ED) to 12-week-old db/db mice twice a day (BID) or three times a day (TID) for about 12 weeks. In order to evaluate the expression level of proteins in the retina, retinal tissue was separated from the extracted mouse eyes and treated with RIPA solution to extract proteins in the retina. Western blot was performed to evaluate the expression level of factors related to neovascularization and vascular permeability in the retina.

JNK = assay: Western blot of retinal tissue, db/db mouse model; type: in vivo, db/db mice; conditions: eye drops BID or TID for about 12 weeks, versus db/db mouse group, Figure 11
Procedure: as §4

COX-2 = assay: Western blot of retinal tissue, db/db mouse model; type: in vivo, db/db mice; conditions: eye drops three times a day (TID) for about 12 weeks, versus db/db mouse group, Figure 10
Procedure: as §4

[13] = tested on: vascular endothelial growth factor (VEGF); assay: Western blot of retinal tissue, db/db mouse model; type: in vivo, db/db mice; conditions: eye drops three times a day (TID) for about 12 weeks, versus db/db mouse group, Figure 8
Procedure: as §4

[14] = tested on: oxygen induced retinopathy (OIR) mouse model; assay: Inhibition of neovascularity in oxygen induced retinopathy mouse model (Isolectin B4 flat mount, fluorescence imaging); type: in vivo; conditions: eye drops (ED) for 5 days from day 12 to day 16 after birth; versus OIR model group; positive control aflibercept IVT once on day 12; Figures 1 and 2
Procedure: In order to evaluate the efficacy of the peptide of the present invention in inhibiting neovascularity in an oxygen induced retinopathy (OIR) mouse model, an experiment was performed as follows.
After stabilizing the mice born with the mother (new born mice) for about 3 to 4 days, they were raised under 75% hyperoxic conditions for 5 days from day 7 to day 11 after birth. Thereafter, they were raised under normoxic conditions until day 17 after birth. Drugs were administered while they were raised under normoxic conditions. The peptide of the present invention (002-175) was administered as eye drops (ED) for 5 days from day 12 to day 16 after birth, and as a positive control group, aflibercept was administered intraocularly (intravitreal injection, IVT) once on day 12 after birth. Thereafter, the mouse eyes were extracted, fixed in 10% formalin for 1 hour, and then flat mounted. The retina was divided into four equal parts centered on the optic nerve, and treated with Isolectin B4 (1 mM CaCl2, 1:200) overnight (O/N). Thereafter, they were spread on a slide glass, sprayed with mounting solution, covered with a cover glass, and photographed under a fluorescence microscope. The fluorescence images of blood vessels in the retina were obtained, and the number and area of new blood vessels and the area of blood vessels were calculated using the imageJ program.

db/db mouse model = assay: Electroretinography in db/db mouse model; type: in vivo, db/db mice; conditions: electroretinogram (ERG), Figure 4
Procedure: The drug was administered as eye drops (ED) to 12-week-old db/db mice twice a day (BID) or three times a day (TID) for about 12 weeks. In order to evaluate retinal function, the mice were dark-adapted for more than 12 hours before measuring electroretinogram (ERG), and then the mice were subjected to pupillary dilation and anesthetized, and electrodes were placed on the skin, tail, and cornea to measure ERG. The retina was stimulated with a single white light to obtain a response value, and the amplitude from the trough of the a wave to the peak of the b wave was measured, which was evaluated as an index of retinal function.

[15] = eye drops (ED) BID or TID for about 12 weeks, versus db/db mouse group
[16] = eye drops three times a day (TID) for about 12 weeks

## [Hyp]GQE[Aib]LA [002-175]
pericytes; [15]
  pericytes: inhibition of the decrease in pericytes
pericytes; [16]
  pericytes, effect of TID compared with BID: more excellent effect compared to the group administered twice a day (BID)
NF-kB [1]
  gene expression of NF-kB: decrease in the gene expression
IL-1β [2]
  gene expression of IL-1β: decrease in the gene expression
MMP9 [3]
  gene expression of MMP9: decrease in the gene expression
GFAP
  expression of GFAP: decrease in the expression of VEGF and GFAP
ZO-1
  expression of ZO-1: increase in expression and a recovery pattern
VEGF
  expression of VEGF: decrease in the expression of VEGF and GFAP
NF-kB [4]
  gene expression of NF-kB: decrease in the gene expression
ikkγ
  gene expression of ikkγ: decrease in the gene expression
IL-1β [5]
  gene expression of IL-1β: decrease in the gene expression
ikkα
  gene expression of ikkα: decrease in the gene expression
ikkβ
  gene expression of ikkβ: decrease in the gene expression
MMP9 [6]
  gene expression of MMP9: decrease in the gene expression
[7]
  TUNEL positive cells: decrease in TUNEL positive cells
[8]; 100 µg/ml, 4 days, high glucose (130 mM glucose)
  diameter of retinal blood vessels: decrease in the diameter of retinal blood vessels to a level similar to that of the normal group
[8]; 200 µg/ml, 4 days, high glucose (130 mM glucose)
  diameter of retinal blood vessels: decrease in the diameter of retinal blood vessels to a level similar to that of the normal group
[8]; treated with glucose and peptide for 4 days from 6th day after fertilization, versus high glucose (130 mM glucose) group
  diameter of retinal blood vessels: decrease in the diameter of retinal blood vessels
Akt [9]
  phosphorylation level of Akt: decrease in the phosphorylation level of Akt
[10]
  expression of vascular endothelial growth factor (VEGF): decrease in the expression of vascular endothelial growth factor
[11]
  amplitude of the a wave and the b wave: increase in the amplitude of the a wave and the b wave to a level similar to that of the group administered with aflibercept
Akt [12]
  phosphorylation level of Akt: decrease in the phosphorylation level of Akt
JNK
  phosphorylation level of JNK: decrease in the phosphorylation level of JNK
COX-2
  expression of COX-2: decrease in the expression of COX-2
[13]
  expression of vascular endothelial growth factor (VEGF): decrease in the expression of vascular endothelial growth factor
[14]
  area of new blood vessels: decrease in the area of new blood vessels to a level similar to that of the group administered with aflibercept
db/db mouse model; [15]
  amplitude of the a wave and the b wave: increase in the amplitude of the a wave and the b wave
db/db mouse model; [16]
  amplitude of the a wave and the b wave, effect of TID compared with BID: more excellent effect compared to the group administered twice a day (BID)
